From US20100240537A1, “Substituted 6-(alkylbenzylamino)purine derivatives for use as cytokinin receptor antagonists and preparations containing these derivatives” (priority 2007, published 2010)
Read-outs that look alike come from different tables or passages of the source.

Key:
[1] = system: cytokinin receptors CRE1/AHK4 and AHK3; experiment: Binding assay with membranes of E. coli expressing cytokinin receptors, competition with 3HtZ; design: species or system Arabidopsis; details: negative control, 1000-fold higher concentration than compound 8
Description: Isolation of E. coli membranes and binding assays were carried out as previously described by Romanov et al. (Romanov et al. Analytical Biochemistry 347:129-134, 2005).

[2] = system: human diploid fibroblasts BJ; experiment: Calcein AM cytotoxicity assay, BJ; format: cell-based; details: 72 hours
Excerpt: (§1) Absence of toxic effects against mammalian (especially human) cell lines in a wide concentration range is one of the requirements on compounds intended for use in agriculture. Because toxic compounds negatively influence metabolic processes in cells, many standard cytotoxicity assays are based on measurement of metabolisation rate of various artificial substrates. Resulting product is then quantified e.g. by means of spectrometry. The assays can be easily modified for use in 96-well plates. For evaluation of cytotoxic effect of the novel substituted 6-(alkylbenzylamino)purine derivatives of this invention, a microtiter assay based on quantification of metabolisation of Calcein AM was used. The assay is widely used in drug screening programs and in chemosensitivity testing. In live cells, Calcein AM is enzymatically hydrolysed and accumulation of resulting calcein is manifested by green fluorescence.
(§2) The cells were maintained in Nunc/Corning 80 cm^2 plastic tissue culture flasks and cultured in cell culture medium (DMEM with 5 g/l glucose, 2 mM glutamine, 100 U/ml penicillin, 100 μg/ml streptomycin, 10% fetal calf serum and sodium bicarbonate).
(§3) The cell suspensions were prepared and diluted according to the particular cell type and the expected target cell density (10^4 cells per well based on cell growth characteristics) and pippetted (80 μl) into 96-well plates. Inoculates were allowed a pre-incubation period of 24 hours at 37° C., 100% humidity and 5% CO2 for stabilisation. Tested compounds were added in total volume of 20 μl of water at time zero. Usually, test compound was evaluated at six 3-fold dilutions. In routine testing, the highest concentration tested was 100 μM, the eventual changes depended on physico-chemical characteristics of the respective compound. All drug concentrations were tested in triplicates. Incubations of cells with the test compounds lasted for 72 hours at 37° C., in 5% CO2 atmosphere and 100% humidity. At the end of incubation period Calcein AM (Molecular Probes) in PBS was added into final concentration of 1 μg/ml. After another 1 hour of incubation fluorescence (FD) was measured with the Labsystem FIA Reader Fluoroscan Ascent (UK). Growth inhibition (GI) was estimated using the following equitation: GI=(mean FDdrug exposed wells−mean FDblank)/(mean FDcontrol wells−mean FDblank)×100%.

[3] = system: erytroid leukemia cell line K-562; experiment: Calcein AM cytotoxicity assay, K-562; format: cell-based, human
Excerpt: as §1, §2, §3

[4] = system: breast carcinoma cell line MCF-7; experiment: Calcein AM cytotoxicity assay, MCF-7; format: cell-based, human
Excerpt: as §1, §2, §3

[5] = system: osteosarcoma cell line HOS; experiment: Calcein AM cytotoxicity assay, HOS; format: cell-based, human; details: 72 hours
Excerpt: as §1, §2, §3

melanoma cell line G-361 = experiment: Calcein AM cytotoxicity assay, G-361; format: cell-based, human
Excerpt: as §1, §2, §3

[6] = system: Human diploid fibroblasts SNF25; experiment: MTT viability assay on human diploid fibroblasts; format: cell-based; details: SNF25 passage 19, 72 hours, read-out: IC50 (reduction in mitochondrial activity, MTT)
Description: MTT is a standard colorimetric assay for measurement of proliferation and survival of the cells. Yellow MTT is reduced into violet formazan in metabolically active cells. The amount of formazan is measured by spectrometry. Human diploid fibroblasts SNF25 (passage 19) were seeded in 96-well plate (5000 cells per well). After 6 hours, the cultivation medium (DMEM containing 5 g/l glucose, 2 mM glutamin, 100 U/ml penicillin, 100 μg/ml streptomycin and 10% fetal calf serum) was removed and fresh medium containing a test compound in concentration range of 0-100 μM was added. The concentration was adjusted in cases of compounds with limited solubility. Each concentration was tested in 5 replicates. MTT was added to the cells after 72 hours into final concentration of 0.5 mg/ml. Incubation time was 3 hours. Resulting MTT was disolved in DMSO and absorbance was measured. The cytotoxic effect was estimated as IC=(Awells with compounds/Acontrol wells)×100%.

CRE1/AHK4 = biological target: T1, CRE1/AHK4 (Arabidopsis thaliana, UniProt Q9C5U0); experiment: Activation of cytokinin receptor CRE1/AHK4 in E. coli KMI001 (β-galactosidase reporter); format: cell-based; details: E. coli KMI001 pIN-III-AHK4, 17 h incubation; n.i. means without interaction; read-out: EC50 CRE1/AHK4 (activation of cytokinin receptor)
T1 construct: expressed in transfected cells; host or cells: Escherichia coli KMI001, plasmid pIN-III-AHK4
Description: (§4) Escherichia coli strains KMI001 harbouring the plasmid pIN-III-AHK4 or pSTV28-AHK3 were grown overnight at 25° C. in M9 media enriched with 0.1% casamino acids to OD600˜1. The preculture was diluted 1:600 in 1 ml M9 medium containing 0.1% casamino acids and 1 μl stock solution of either the tested compound (10^−7 M−5×10^−5 M) or solvent control (DMSO, ethanol, methanol) were added. The cultures were further grown at 25° C. in microtiter plate, 200 μl per well. […] The cultures were centrifuged and 50 μl aliquots of the supernatant were transferred to microtiter plate containing 2 μl 50 mM 4-methyl umbelliferyl galactoside which was subsequently incubated for 1 h at 37° C. The reaction was stopped by adding 100 μl 0.2 M Na2CO3. Fluorescence was measured using a Fluoroscan Ascent (Labsystems, Finland) at the excitation and emission wavelengths of 365 and 460 nm, respectively. The OD600 of remaining culture was determined and β-galactosidase activity was calculated as nmol 4-methylumbelliferone×OD600^−1×h^−1.
(§5) The EC50 value, the compound concentration activating the receptor to 50%, was calculated from the obtained dose response curves. The compound functioning as cytokinin antagonists should not activate cytokinin signalling pathway. The values shown in Table 2 are means of three replicates and the entire test was repeated at least twice.

AHK3 = biological target: T2, AHK3 (Arabidopsis thaliana, UniProt Q9C5U1); experiment: Activation of cytokinin receptor AHK3 in E. coli KMI001 (β-galactosidase reporter); format: cell-based; details: E. coli KMI001 pSTV28-AHK3, 28 h incubation; n.i. means without interaction; read-out: EC50 AHK3 (activation of cytokinin receptor)
T2 construct: expressed in transfected cells; host or cells: Escherichia coli KMI001, plasmid pSTV28-AHK3
T2 sequence (Q9C5U1 1-1036): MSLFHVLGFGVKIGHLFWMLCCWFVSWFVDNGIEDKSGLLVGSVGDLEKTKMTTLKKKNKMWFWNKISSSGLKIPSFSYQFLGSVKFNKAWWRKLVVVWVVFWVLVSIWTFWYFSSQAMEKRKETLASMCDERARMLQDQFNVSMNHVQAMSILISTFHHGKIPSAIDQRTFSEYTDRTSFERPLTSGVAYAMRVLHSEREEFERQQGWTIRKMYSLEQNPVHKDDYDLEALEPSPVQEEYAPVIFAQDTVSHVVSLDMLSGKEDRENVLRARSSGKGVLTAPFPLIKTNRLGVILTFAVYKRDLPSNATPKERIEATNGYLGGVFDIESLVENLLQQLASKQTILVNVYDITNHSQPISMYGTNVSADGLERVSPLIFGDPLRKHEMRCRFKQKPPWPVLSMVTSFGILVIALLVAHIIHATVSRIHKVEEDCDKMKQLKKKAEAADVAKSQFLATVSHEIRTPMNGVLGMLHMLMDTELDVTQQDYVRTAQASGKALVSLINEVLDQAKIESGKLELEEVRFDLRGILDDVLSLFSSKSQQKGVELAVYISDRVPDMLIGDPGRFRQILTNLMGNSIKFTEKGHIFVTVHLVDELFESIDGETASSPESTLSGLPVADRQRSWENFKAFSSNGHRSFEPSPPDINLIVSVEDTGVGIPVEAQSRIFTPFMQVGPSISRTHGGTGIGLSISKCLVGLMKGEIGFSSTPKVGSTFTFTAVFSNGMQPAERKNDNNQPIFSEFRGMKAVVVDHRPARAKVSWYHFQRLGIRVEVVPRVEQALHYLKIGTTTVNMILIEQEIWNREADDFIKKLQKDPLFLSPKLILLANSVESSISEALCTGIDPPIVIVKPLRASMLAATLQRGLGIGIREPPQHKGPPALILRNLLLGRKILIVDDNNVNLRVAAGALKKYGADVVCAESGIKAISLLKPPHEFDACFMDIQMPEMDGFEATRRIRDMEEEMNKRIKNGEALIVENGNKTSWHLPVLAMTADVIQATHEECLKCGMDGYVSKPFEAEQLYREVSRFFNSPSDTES
Description: as §4, §5

T1 sequence (Q9C5U0 whole entry): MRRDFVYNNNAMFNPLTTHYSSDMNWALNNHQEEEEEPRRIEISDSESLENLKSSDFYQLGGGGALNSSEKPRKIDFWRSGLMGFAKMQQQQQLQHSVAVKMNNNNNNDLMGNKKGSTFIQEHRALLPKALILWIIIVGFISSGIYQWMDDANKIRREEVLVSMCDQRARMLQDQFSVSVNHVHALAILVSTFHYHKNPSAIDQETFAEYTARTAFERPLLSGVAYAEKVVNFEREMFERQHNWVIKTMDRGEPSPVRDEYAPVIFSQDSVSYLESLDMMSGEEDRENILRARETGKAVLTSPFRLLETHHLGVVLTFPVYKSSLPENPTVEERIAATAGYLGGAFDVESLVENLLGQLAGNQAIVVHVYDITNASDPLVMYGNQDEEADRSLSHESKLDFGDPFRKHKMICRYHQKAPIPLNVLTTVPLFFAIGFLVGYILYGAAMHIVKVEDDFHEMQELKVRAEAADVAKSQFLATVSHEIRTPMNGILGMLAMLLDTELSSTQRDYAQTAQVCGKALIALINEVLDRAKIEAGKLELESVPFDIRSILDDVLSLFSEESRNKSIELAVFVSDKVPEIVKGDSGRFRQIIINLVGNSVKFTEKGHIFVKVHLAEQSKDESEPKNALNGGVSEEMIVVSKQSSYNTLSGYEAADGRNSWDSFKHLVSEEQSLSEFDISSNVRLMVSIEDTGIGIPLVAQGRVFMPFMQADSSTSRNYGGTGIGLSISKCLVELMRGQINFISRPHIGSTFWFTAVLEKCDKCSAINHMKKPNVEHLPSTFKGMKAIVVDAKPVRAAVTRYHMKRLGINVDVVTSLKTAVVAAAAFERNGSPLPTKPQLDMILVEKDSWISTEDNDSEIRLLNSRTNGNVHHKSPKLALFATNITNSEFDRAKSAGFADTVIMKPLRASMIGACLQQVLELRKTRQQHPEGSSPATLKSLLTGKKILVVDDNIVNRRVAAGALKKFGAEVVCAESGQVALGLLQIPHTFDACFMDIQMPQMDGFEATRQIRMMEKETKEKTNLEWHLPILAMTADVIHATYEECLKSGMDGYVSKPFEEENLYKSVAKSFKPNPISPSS

Compound	effect on binding of 3HtZ [1]	GI50 ([2]; Homo sapiens, Fibroblast) [µM]	GI50 ([3]; Homo sapiens, K562, 72 hours) [µM]	GI50 ([4]; Homo sapiens, MCF7, 72 hours) [µM]	GI50 ([5]; Homo sapiens) [µM]	GI50 (melanoma cell line G-361; Homo sapiens, G-361, 72 hours) [µM]	IC50 ([6]; Homo sapiens, Fibroblast) [µM]	GI50 [2] [µM]	GI50 ([3]; 72 hours) [µM]	GI50 ([4]; 72 hours, read-out: GI50 MCF7) [µM]	GI50 [5] [µM]	GI50 (melanoma cell line G-361; 72 hours) [µM]	IC50 [6] [µM]	EC50 (CRE1/AHK4) [µM]	EC50 (AHK3) [µM]
Nc1ncnc2nc[nH]c12 [adenine]	not effective at all	> 100	> 100	> 100	> 100	> 100	> 100	–	–	–	–	–	–	–	–
CC(C)=CCNc1ncnc2nc[nH]c12 [isopentenyladenine]	–	–	–	–	–	–	–	> 100	> 100	> 100	> 100	> 100	> 100	–	–
c1coc(CNc2ncnc3[nH]cnc23)c1 [kinetin]	–	> 100	> 100	> 100	> 100	> 100	> 100	–	–	–	–	–	–	–	–
Oc1cccc(CNc2ncnc3nc[nH]c23)c1 [meta-topolin]	–	–	–	–	–	–	–	> 100	> 100	> 100	> 100	> 100	> 100	–	–
Oc1ccccc1CNc1ncnc2nc[nH]c12 [ortho-topolin]	–	–	–	–	–	–	–	> 100	> 100	> 100	> 100	> 100	> 100	–	–
C/C(=C\CNc1ncnc2nc[nH]c12)CO [trans-zeatin]	–	–	–	–	–	–	–	> 100	> 100	> 100	> 100	> 100	> 100	0.9	2.1
